We go through seven compounds from US4346082A, “Method of employing therapeutic composition comprising ammonium or substituted ammonium compounds for treatment of alcoholism” (The Vinoxen Company, priority 1981, dated 1982).

Like-named read-outs stand apart in the source and are kept apart here.

Series [1] concerns humans. In words: Toxicity in humans, repeated administration of capsules. Particulars: up to 20 capsules per day (1 gram/capsule) for 10 days.
For series [2], the system named is mice. The series is described as follows: Acute, subacute and chronic toxicity in mice, gastric catheter.
The subject of series [3] is rats. The series is described as follows: Acute, subacute and chronic toxicity in rats, gastric catheter.
The subject of series [4] is effects of alcohol. The series is described as follows: Efficacy in altering the effects of alcohol administered to mice. It is filed as in vivo. Particulars: for comparative effect on mice of ammonium thiosulfate and ammonium sulfate: series of tests in mice. As to the method: Tests of some of the compounds encompassed within the scope of this invention were carried out with mice to determine efficacy in altering the effects of alcohol administered to the test animals.

Series [5] can be described thus: pH of 5 weight percent aqueous salt solution. It is filed as physicochemical. Conditions: 5 g salt per 100 g aqueous solution, 25° C. As to the method: For each salt, 5.000 grams of reagent grade material was weighed and added to 95.00 grams of water. […] The instrument was allowed to equilibrate for three minutes between each sample, and the electrodes were rinsed with carbonate-free deionized water. Manual temperature control was set at 25° C.

Series [6] deals with ethanol-induced neurological deficit. Particulars: for Fraction Protected / Percent (protected): 0.6 ml/mouse. As to the method:
They were deprived of food, but not water, for a period of five hours preceding the test. […] Ten minutes later the animals were tested for neurological deficit or its absence in the usual manner as described in Example 1. A separate group of fasted by non-pretreated mice served as ethanol controls.

Series [7] concerns rats. Conditions: rat, in vivo.
The test system of series [8] is manifestations of the effects of alcohol. Conditions: 1 or 2 capsules of 1 gram after 1 or 2 alcoholic drinks; in some cases. The text has this: Throughout the specification and claims reference to an alcoholic drink means reference to an aqueous mixture of ethanol containing about 15-25 grams of ethanol per drink.
Series [9] relates to mice. Particulars: mouse, in vivo.
Series [10] has as its system humans. Conditions: in vivo.
For series [11], the system named is effects of alcohol. In words: Efficacy in altering the effects of alcohol in humans. Particulars: compared with ammonium sulfate.
Series [12] concerns ethanol-induced neurological deficit.
Method: (§1) Neurological deficit was recorded if the animal was unable to remain on the rod for at least 10 seconds.
Series [13] shares this test system. Conditions: for Fall from rod in 10 sec. (individual mouse): 0.6 ml of 10% solution oral, 30 min before 0.5 ml 30% ethanol oral; for No. Protected/No. Treated: 0.6 ml/mouse of 10% solution oral, ethanol 0.5 ml/mouse; for effectiveness as inhibitors of ethanol-induced neurological deficit: at the dose used (0.6 ml/mouse of 10% solution).
Method: as §1
Each composition was prepared freshly as a 10% aqueous solution from the crystalline preparation. A dose of 0.6 ml/mouse was administered orally to 10 mice for each compound. […] A group of 10 untreated mice were used as controls.
The test system of series [14] is effect of alcohol on a human brain. Conditions: publication DOT HS-801 208 (1974); cited from earlier work.
The test system of series [15] is neurological deficit. Conditions: i.p., fasted mice; 0.12-0.19 at 95% confidence limit. The procedure: Further, and in order to avoid physio-chemical problems that might, albeit remotely, arise if ethanol is administered orally, applicant also determined the intraperitoneal ED50 of ethanol in fasted mice.
Series [16] concerns neurological deficit. The procedure: Ten minutes later the animals were placed, individually, on a rotored, rotating at 6 rpm. […] Absence of neurological deficit was similarly recorded (+) if the animal had sufficient coordination and muscular power to remain on the rotating rod for 10 seconds or more.
The mark [17] stands for this setting: ethanol 0.50 ml per mouse, ammonium thiosulfate pretreated.
Setting [18] is: ethanol 0.63 ml per mouse, ammonium thiosulfate pretreated.
Setting [19] is: ethanol 0.75 ml per mouse, ammonium thiosulfate pretreated.
[20] abbreviates: ethanol 0.87 ml per mouse, ammonium thiosulfate pretreated.
Where [21] appears, read: ethanol 1.00 ml per mouse, ammonium thiosulfate pretreated.
The mark [22] stands for this setting: ethanol 0.05 ml per mouse, non-pretreated.
The mark [23] stands for this setting: ethanol 0.10 ml per mouse, non-pretreated.
[24] abbreviates: ethanol 0.15 ml per mouse, non-pretreated.
Where [25] appears, read: ethanol 0.20 ml per mouse, non-pretreated.
Where [26] appears, read: ethanol 0.30 ml per mouse, non-pretreated.
Where [27] appears, read: ethanol 0.50 ml per mouse, non-pretreated.

For `CC(=O)O` [Ammonium acetate, ammonium acetate], the “clinical or analytic noxious effects” value in the series on humans [1] was “no clinical or analytic noxious effects”. Further, the “acute, subacute and chronic toxicity” value in the series on mice [2] and in the series with rats [3] was “low toxicity” throughout. Moreover, the “efficacy in altering the effects of alcohol in mice” value in the series with effects of alcohol [4] (mice) is given as “Good results”. In [5], the “pH of 5 Weight Percent Solution” value amounted to 6.790.

For `N.N.O=S(O)(O)=S` [Ammonium thiosulfate, ammonium thiosulfate], the “percent of pure ammonium thiosulfate required to protect 50% of the mice” value in [6] (0.6 ml/mouse oral as basic dose) is 3.6 (2.63-4.93%). In addition, the “Fraction Protected” value in [6] (1.25% ammonium thiosulfate) is 0/10; in series [6] (2.5% ammonium thiosulfate), 3/10; in series [6] (5.0% ammonium thiosulfate), 7/10; in series [6] (7.5% ammonium thiosulfate), 8/10; in series [6] (10.0% ammonium thiosulfate), 8/10. The “Percent (protected)” value in series [6] (1.25% ammonium thiosulfate) is given as 0%; in [6] (2.5% ammonium thiosulfate) it was 30%; in series [6] (5.0% ammonium thiosulfate), 70%; in series [6] (7.5% ammonium thiosulfate) it was 80%; in series [6] (10.0% ammonium thiosulfate) it was 80%. Also, the “Fall from rod in 10 sec. (individual mouse)” value (“Fall from rod” below) in series [6] (1.25% ammonium thiosulfate, 0.6 ml/mouse oral, 30% ethanol 0.5 ml/mouse) was “+”; in series [12] (ethanol 0.5 ml, 0.6 ml of 10% ammonium thiosulfate solution oral, 30 min before), “- and +”; in series [12] (ethanol 0.63 ml, 0.6 ml of 10% ammonium thiosulfate solution oral, 30 min before), “- and +”; in series [12] (ethanol 0.75 ml, 0.6 ml of 10% ammonium thiosulfate solution oral, 30 min before), “+ and ° and -”; in series [12] (ethanol 0.87 ml, 0.6 ml of 10% ammonium thiosulfate solution oral, 30 min before), “+ and -”; in series [12] (ethanol 1.00 ml, ammonium thiosulfate solution dose printed as 0.0 ml), “+”. Besides, the “Fall from rod” value in series [13] was “- and +”. Also, the “acute, subacute and chronic toxicity” value in the series on rats [7] and with mice [9] was “low toxicity” in each case. Further, the “additional drinks consumed without typical manifestations of the effects of alcohol” value in series [8] is reported as “up to 8 additional drinks”. In the series with humans [10], the “clinical or analytic noxious effects” value was “no clinical or analytic noxious effects”. Moreover, the “expected effect in altering the effects of alcohol ingestion in humans” value in the series with effects of alcohol [11] was “substantially greater”. The “comparative effect on mice of ammonium thiosulfate and ammonium sulfate” value with effects of alcohol [4] was “approximately equally effective”. The “pH of 5 Weight Percent Solution” value in series [5] came to 5.966. Moreover, in series [12] (30% (v/v) ethanol oral, ammonium thiosulfate pretreated), the “ED50 of 30% ethanol in pretreated mice” value was 0.76 ml/mouse. In [12] (30% (v/v) ethanol, 95% limits 0.65-0.90 ml), the “oral ED50 of ethanol in ammonium thiosulfate pretreated animals” value stood at 0.76 mL. The “increase in ethanol required to induce neurological deficit following pretreatment” value in series [12] (ammonium thiosulfate pretreated vs non-pretreated mice) is recorded as “nearly five times”. Moreover, the “Fraction Falling From Rod in 10 sec.” value in series [12] (setting [17]) is reported as 1/10; in series [12] (setting [18]) it was 2/10; in series [12] (setting [19]), 4/10; in [12] (setting [20]), 7/10; in series [12] (setting [21]), 10/10. Also, the “Percent Falling” value in series [12] (setting [17]) was determined as 10%; in series [12] (setting [18]), 20%; in [12] (setting [19]) it was 40%; in series [12] (setting [20]), 70%; in [12] (setting [21]), 100%. The “No. Protected/No. Treated” value in series [13] is reported as 8/10. The “effectiveness as inhibitors of ethanol-induced neurological deficit” value in series [13] was “highly effective”. The “relative potency of ammonium thiosulfate and ammonium sulfate” value in series [13] (single test) is recorded as “essentially equipotent”.

ammonium sulfate: in the series with humans [1], the “clinical or analytic noxious effects” value was “no clinical or analytic noxious effects”. Also, in the series with effects of alcohol [4], the “comparative effect on mice of ammonium thiosulfate and ammonium sulfate” value is “approximately equally effective”. Besides, the “pH of 5 Weight Percent Solution” value in series [5] is 5.263. In series [13], the “Fall from rod” value was “- and +”; the “No. Protected/No. Treated” value is 7/10; the “effectiveness as inhibitors of ethanol-induced neurological deficit” value is reported as “highly effective”.

For `Cl.N` [Ammonium chloride, ammonium chloride, reference compound], the amethystic effect result in series [14] is on record as “does not appear to act as an amethystic agent”. Besides, the “pH of 5 Weight Percent Solution” value in series [5] is 4.761.

`N[C@@H](Cc1ccc(O)c(O)c1)C(=O)O` [L-dopa]: the amethystic effect entry in series [14] is recorded as “most effective amethystic agent”.

Regarding `CCO` [Ethanol, ethanol], in the series on neurological deficit [15], the “intraperitoneal ED50 of 30% ethanol” value was 0.15 ml/mouse. Moreover, the “ED50 (95% Limit)” value with neurological deficit [16] (30% (v/v) ethanol oral, non-pretreated, 95% limit 0.13-0.22) stood at 0.17 mL. The “oral ED50 of 30% ethanol for neurological deficit, non-pretreated mice” value in the series on neurological deficit [16] (30% (v/v) ethanol, 95% fiducial limits 0.13 to 0.22 ml/mouse) worked out at 0.17 ml/mouse. The “Fall from rod” value in the series with neurological deficit [16] (ethanol 0.05 ml oral, non-pretreated) is given as “-”; in the series with neurological deficit [16] (ethanol 0.5 ml oral, non-pretreated), “+”. Further, the “Fraction Falling From Rod in 10 sec.” value is 0/5 with neurological deficit [16] (setting [22]); 2/10 with neurological deficit [16] (setting [23]); 4/10 in the series with neurological deficit [16] (setting [24]); 7/10 in the series on neurological deficit [16] (setting [25]); 4/5 in the series with neurological deficit [16] (setting [26]); 10/10 in the series with neurological deficit [16] (setting [27]). The “Percent Falling” value with neurological deficit [16] (setting [22]) came to 0%; in the series with neurological deficit [16] (setting [23]) it was 20%; in the series on neurological deficit [16] (setting [24]), 40%; in the series on neurological deficit [16] (setting [25]), 70%; with neurological deficit [16] (setting [26]), 80%; in the series with neurological deficit [16] (setting [27]), 100%.

As for `N.NS(=O)(=O)O` [Ammonium sulfamate, ammonium sulfamate], in [5], the “pH of 5 Weight Percent Solution” value amounted to 5.335.
